Reference: ChEMBL document CHEMBL2062379, “Cleavage mechanism and anti-tumor activity of 3,6-epidioxy-1,10-bisaboladiene isolated from edible wild plants” (Bioorg Med Chem, 2012)
Calls of active or inactive are those of the source. The rule behind the calls is not given here.

Experiments:
OVCAR-3 = experiment: Growth inhibition of human OVCAR3 cells; assay type: functional
MCF7 = experiment: Growth inhibition of human MCF7 cells; assay type: functional
K562 = experiment: Cytotoxicity against human K562 cells after 4 days by MTT assay; assay type: functional, cell-based; settings: K562, 96 h
HL-60 [1] = experiment: Induction of apoptosis in human HL60 cells assessed as caspase 8 activation at 20 uM after 3 hrs by spectrophotometric analysis; assay type: functional, cell-based
Saccharomyces cerevisiae [2] = experiment: Growth restoration activity in cdc2-1 rad9-deficient Saccharomyces cerevisiae assessed as growth zone incubated at 37 degC for 6 hrs and 28 degC for 2 days; assay type: functional, organism-based
LOX IMVI [3] = experiment: Growth inhibition of human LOXIMVI cells; assay type: functional
SNB-75 = experiment: Growth inhibition of human SNB75 cells; assay type: functional
KM12 = experiment: Growth inhibition of human KM12 cells; assay type: functional
HL-60 [4] = experiment: Induction of apoptosis in human HL60 cells assessed as caspase 3/7 activation at 20 uM after 3 hrs by spectrophotometric analysis; assay type: functional, cell-based
[5] = Growth inhibition of human MKN1 cells; assay type: functional; settings: MKN-1
PC-3 = experiment: Growth inhibition of human PC3 cells; assay type: functional
HL-60 [6] = experiment: Cytotoxicity against human HL60 cells assessed as cell viability at 2 uM by MTT assay in presence of 20 uM Fe2(SO4)3; assay type: functional
LNCaP = experiment: Cytotoxicity against human LNCAP cells after 4 days by MTT assay; assay type: functional, cell-based; settings: 96 h
DMS-273 = experiment: Growth inhibition of human DMS273 cells; assay type: functional
HL-60 [7] = experiment: Induction of apoptosis in human HL60 cells assessed as caspase 3/7 activation after 1 to 6 hrs by spectrophotometric analysis; assay type: functional, cell-based
[8] = Growth inhibition of human BSY1 cells; assay type: functional; settings: BSY-1
HL-60 [9] = experiment: Induction of apoptosis in human HL60 cells assessed as DNA fragmentation after 24 hrs by Hoechst staining-based microscopic analysis in presence of 50 uM superoxide scavenger allopurinol; assay type: functional, cell-based
HL-60 [10] = experiment: Induction of apoptosis in human HL60 cells assessed as DNA fragmentation after 24 hrs by Hoechst staining-based microscopic analysis; assay type: functional, cell-based
NCI-H522 = experiment: Growth inhibition of human NCI-H522 cells; assay type: functional
HL-60 [11] = experiment: Induction of apoptosis in human HL60 cells assessed as caspase 9 activation after 1 to 6 hrs by spectrophotometric analysis; assay type: functional, cell-based
[12] = Growth inhibition of human HBC4 cells; assay type: functional
U-251 = experiment: Growth inhibition of human U251 cells; assay type: functional
HCT-15 = experiment: Growth inhibition of human HCT15 cells; assay type: functional
SK-OV-3 = experiment: Growth inhibition of human SKOV3 cells; assay type: functional
HL-60 [13] = experiment: Induction of apoptosis in human HL60 cells assessed as DNA fragmentation after 24 hrs by Hoechst staining-based microscopic analysis in presence of 10 mM hydrogen peroxide scavenger NAC; assay type: functional, cell-based
MKN-74 = experiment: Growth inhibition of human MKN74 cells; assay type: functional
MKN-45 = experiment: Growth inhibition of human MKN45 cells; assay type: functional
NCI-H23 = experiment: Growth inhibition of human NCI-H23 cells; assay type: functional
HL-60 [14] = experiment: Cytotoxicity against human HL60 cells assessed as cell viability at 2 uM by MTT assay in presence of 20 uM FeSO4; assay type: functional
HL-60 [15] = experiment: Cytotoxicity against human HL60 cells assessed as cell viability at 2 uM by MTT assay; assay type: functional; settings: read-out: Activity
HL-60 [16] = experiment: Induction of ROS generation in human HL60 cells at 10 uM after 3 hrs by spectrofluorometric analysis; assay type: functional, cell-based
Mus musculus = experiment: Toxicity in nude mouse bearing human LOXIMVI cells assessed as change in body weight at 25 mg/kg, iv administered on day 1, 6 and 11; assay type: organism-based, LOX IMVI; set-up: dose 25 mg/kg, route intravenous; settings: in vivo
St-4 = experiment: Growth inhibition of human St-4 cells; assay type: functional
LOX IMVI [17] = experiment: Antitumor activity against human LOXIMVI cells xenografted in nude mouse assessed as decrease in tumor volume at 25 mg/kg, iv administered on day 1, 6 and 11 post tumor inoculation measured on day 21; assay type: functional; set-up: scale not given: the % may be the effect or the level left
Saccharomyces cerevisiae [18] = experiment: Growth restoration activity in cdc2-1 rad9-deficient Saccharomyces cerevisiae assessed as growth zone at 1 ug/disc incubated at 37 degC for 6 hrs and 28 degC for 2 days; assay type: functional
Saccharomyces cerevisiae [19] = experiment: Growth restoration activity in cdc2-1 rad9-deficient Saccharomyces cerevisiae assessed as growth zone at 4 ug/disc incubated at 37 degC for 6 hrs and 28 degC for 2 days; assay type: functional
[20] = Growth inhibition of human RXF631L cells; assay type: functional; settings: RXF 631
HL-60 [21] = experiment: Induction of apoptosis in human HL60 cells assessed as caspase 9 activation at 20 uM after 3 hrs by spectrophotometric analysis; assay type: functional, cell-based
SF-268 = experiment: Growth inhibition of human SF268 cells; assay type: functional
DU-145 = experiment: Growth inhibition of human DU145 cells; assay type: functional
HCC 2998 = experiment: Growth inhibition of human HCC2998 cells; assay type: functional
HCT-116 = experiment: Growth inhibition of human HCT116 cells; assay type: functional
MKN-28 = experiment: Growth inhibition of human MKN28 cells; assay type: functional
[22] = Prodrug conversion in buffer at pH 8 assessed as (1)- 7-(1,5-Dimethyl-hex-4-enyl)-4-methyl-3,8-dioxa-tricyclo[5.1.0.0*2,4*]octane formation after 24 hrs by HPLC analysis in presence of 25 mM FeSO4; assay type: physicochemical; settings: pH 8, 24 h
HL-60 [23] = experiment: Cytotoxicity against human HL60 cells after 48 hrs by MTT assay in presence of DFOM; assay type: functional, cell-based; settings: HL-60, 48 h
HT-29 = experiment: Growth inhibition of human HT-29 cells; assay type: functional
NCI-H226 = experiment: Growth inhibition of human NCI-H226 cells; assay type: functional
HL-60 [24] = experiment: Induction of apoptosis in human HL60 cells assessed as DNA fragmentation after 24 hrs by Hoechst staining-based microscopic analysis preincubated with 10 uM ERK inhibitor PD98059; assay type: functional, cell-based
A549 = experiment: Growth inhibition of human A549 cells; assay type: functional
HL-60 [25] = experiment: Induction of apoptosis in human HL60 cells assessed as DNA fragmentation at 1.25 to 40 uM by Hoechst staining-based microscopic analysis; assay type: functional, cell-based; settings: TDE = time-dependent effect
[26] = Induction of ROS generation at 10 uM after 3 hrs by spectrofluorometric analysis in presence of FeSO4; assay type: physicochemical
OVCAR-8 = experiment: Growth inhibition of human OVCAR8 cells; assay type: functional
HL-60 [27] = experiment: Cytotoxicity against human HL60 cells after 48 hrs by MTT assay; assay type: functional, cell-based; settings: HL-60, 48 h
HL-60 [28] = experiment: Induction of ROS generation in human HL60 cells at 10 uM measured immediately by spectrofluorometric analysis; assay type: functional, cell-based
HL-60 [29] = experiment: Induction of apoptosis in human HL60 cells assessed as caspase 8 activation after 1 to 6 hrs by spectrophotometric analysis; assay type: functional, cell-based
Saccharomyces cerevisiae [30] = experiment: Growth restoration activity in cdc2-1 rad9-deficient Saccharomyces cerevisiae assessed as growth zone at 2 ug/disc incubated at 37 degC for 6 hrs and 28 degC for 2 days; assay type: functional
OVCAR-4 = experiment: Growth inhibition of human OVCAR4 cells; assay type: functional

CC(C)=CCCC(C)C12C=CC(C)(CC1)OO2 (configuration not stated)
GI50 (OVCAR-3): 1.74 µM | GI50 (MCF7): 2.09 µM | IC50 (K562): 9.1 µM | Activity (HL-60 [1]): Active | Activity (Saccharomyces cerevisiae [2]): Dose-dependent effect | GI50 (LOX IMVI [3]): 0.214 µM | GI50 (SNB-75): 1.32 µM | GI50 (KM12): 1.86 µM | Activity (HL-60 [4]): Active | GI50 [5]: 1.74 µM | GI50 (PC-3): 1.82 µM | Activity (HL-60 [6]): 34.9% | IC50 (LNCaP): 23.4 µM | GI50 (DMS-273): 1.15 µM | Activity (HL-60 [7]): Dose-dependent effect | GI50 [8]: 2.95 µM | Activity (HL-60 [9]): Active | Activity (HL-60 [10]): Dose-dependent effect | GI50 (NCI-H522): 0.2 µM | Activity (HL-60 [11]): Dose-dependent effect | GI50 [12]: 1.12 µM | GI50 (U-251): 5.01 µM | GI50 (HCT-15): 4.9 µM | GI50 (SK-OV-3): 7.94 µM | Activity (HL-60 [13]): Active | GI50 (MKN-74): 1.17 µM | GI50 (MKN-45): 6.31 µM | GI50 (NCI-H23): 1.7 µM | Activity (HL-60 [14]): 33.2% | viability at 2 µM (HL-60 [15]): 77.8% | Activity (HL-60 [16]): inactive | Activity (Mus musculus): Non-toxic | GI50 (St-4): 5.37 µM | Activity (LOX IMVI [17]): 26.9% | Activity (Saccharomyces cerevisiae [18]): 19 mm | Activity (Saccharomyces cerevisiae [19]): 29 mm | GI50 [20]: 2.51 µM | Activity (HL-60 [21]): Active | GI50 (SF-268): 7.08 µM | GI50 (DU-145): 2.63 µM | GI50 (HCC 2998): 4.68 µM | GI50 (HCT-116): 3.72 µM | GI50 (MKN-28): 8.32 µM | Drug metabolism [22]: Active | IC50 (HL-60 [23]): 35.5 µM | GI50 (HT-29): 0.178 µM | GI50 (NCI-H226): 3.89 µM | Activity (HL-60 [24]): Active | GI50 (A549): 1.55 µM | Activity (HL-60 [25]): tde | Activity [26]: Active | GI50 (OVCAR-8): 12 µM | IC50 (HL-60 [27]): 3.4 µM | Activity (HL-60 [28]): Active | Activity (HL-60 [29]): Dose-dependent effect | Activity (Saccharomyces cerevisiae [30]): 24.1 mm | GI50 (OVCAR-4): 1.82 µM
